Assay results taken from US9458176B2, “Tetrahydroimidazo(1,5-D)[1,4]oxazepine derivative” (Eisai R&D Management Co., Ltd., priority 2013, dated 2016).

Molecular target: human mGluR2 (Homo sapiens (Human), UniProt Q14416)
Experiment: [35S]GTPγS binding assay (Affinity to mGluR2)
Type: biochemical
Conditions: cell membrane fraction of HEK293 cells stably expressing human mGluR2, glutamic acid 10 μM
How it was run: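 Membranes from HEK293 cells stably co-expressing human mGluR2 and SLC1A3 (1.8–3 μg protein) preincubated with compound 30 min at RT, then stimulated with 10 μM glutamate 15 min; [35S]GTPγS (0.8 kBq) with WGA-SPA beads 1 h, buffer with 3 μM GDP, 100 mM NaCl, 1 mM MgCl2. IC50 from inhibition of glutamate-specific binding.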

[1] = inhibition of specific [35S]GTPγS binding

Chain of human mGluR2 (Q14416 19-872): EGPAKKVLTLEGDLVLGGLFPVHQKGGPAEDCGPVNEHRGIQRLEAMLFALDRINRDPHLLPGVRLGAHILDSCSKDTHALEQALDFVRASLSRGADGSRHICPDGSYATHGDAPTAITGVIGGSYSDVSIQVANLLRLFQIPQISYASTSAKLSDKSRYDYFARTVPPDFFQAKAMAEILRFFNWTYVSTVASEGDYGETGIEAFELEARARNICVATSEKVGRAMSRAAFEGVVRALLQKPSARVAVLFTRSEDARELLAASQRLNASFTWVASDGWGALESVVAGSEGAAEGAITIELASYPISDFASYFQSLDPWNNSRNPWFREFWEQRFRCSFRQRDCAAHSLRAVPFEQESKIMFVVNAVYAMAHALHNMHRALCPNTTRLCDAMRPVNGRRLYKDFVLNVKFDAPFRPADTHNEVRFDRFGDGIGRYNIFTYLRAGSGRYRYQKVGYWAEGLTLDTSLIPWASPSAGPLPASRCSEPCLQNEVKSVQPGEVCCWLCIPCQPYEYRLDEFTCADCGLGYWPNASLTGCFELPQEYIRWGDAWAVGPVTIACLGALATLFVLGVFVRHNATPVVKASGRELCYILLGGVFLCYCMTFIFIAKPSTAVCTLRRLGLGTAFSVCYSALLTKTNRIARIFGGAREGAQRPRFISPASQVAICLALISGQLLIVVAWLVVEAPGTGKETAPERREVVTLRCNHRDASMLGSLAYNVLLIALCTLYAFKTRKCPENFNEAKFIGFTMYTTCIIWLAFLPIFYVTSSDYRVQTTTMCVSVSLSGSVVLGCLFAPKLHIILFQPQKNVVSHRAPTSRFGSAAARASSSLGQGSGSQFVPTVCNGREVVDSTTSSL

SMILES	IC50 [nM]	IC50 [1] [nM]
Cc1cc(-c2nc(-c3ccc(Cl)c(C)c3)n3c2CCO[C@H](C)C3)cc(CF)n1 [Example 88]	16.7	–
Cc1cc(-c2nc(-c3ccc(OC(F)(F)F)cc3)n3c2CCO[C@H](C)C3)ccn1 [Example 50]	14.2	–
Cc1cc(-c2nc(-c3ccc(Cl)c(C(F)F)c3)n3c2CCOCC3)ccn1 [Example 126]	8.4	–
Cc1cc(-c2nc(-c3ccc(OC(F)(F)F)c(C#N)c3)n3c2CCO[C@H](CF)C3)cc(C)n1 [Example 195]	–	3.7
Cc1cc(-c2nc(-c3cccc(Cl)c3)n3c2CCO[C@H](C)C3)ccn1 [Example 63]	78.6	–
Cc1cc(-c2nc(-c3ccc(C(F)F)c(Cl)c3)n3c2CCO[C@H](CF)C3)cc(C)n1 [Example 197]	–	15.1
CCOc1cc(-c2nc(-c3ccnc(C)c3)c3n2C[C@@H](C)OCC3)ccc1C(F)(F)F [Example 83]	1.7	–
Cc1cc(-c2nc(-c3ccc(Cl)c(Cl)c3)n3c2CCO[C@H](C)C3)cc(CF)n1 [Example 89]	13.2	–
CCOc1cc(-c2nc(-c3ccnc(C)c3)c3n2C[C@@H](C)OCC3)ccc1C [Example 223]	–	16.7
Cc1cc(-c2nc(-c3ccc(OC(F)F)c(Cl)c3)n3c2CCO[C@H](C)C3)ccn1 [Example 21, (R)-3-(3-chloro-4-(difluoromethoxy)phenyl)-6-methyl-1-(2-methylpyridin-4-yl)-5,6,8,9-tetrahydroimidazo[1,5-d][1,4]oxazepine]	7.5	–
Cc1cc(-c2nc(-c3ccc(OC(F)(F)F)c(C)c3)n3c2CCO[C@H](C)C3)ccn1 [Example 9, (R)-6-methyl-3-(3-methyl-4-(trifluoromethoxy)phenyl)-1-(2-methylpyridin-4-yl)-5,6,8,9-tetrahydroimidazo[1,5-d][1,4]oxazepine]	1.9	–
COc1cc(-c2nc(-c3ccnc(C)c3)c3n2C[C@@H](C)OCC3)ccc1Cl [Example 114]	19.2	–
CCOc1cc(-c2nc(-c3cc(C)nc(C)c3)c3n2CCOCC3)ccc1Cl [Example 102]	22.7	–
Cc1cc(-c2nc(-c3ccc(OC(F)F)c(Cl)c3)n3c2CCOCC3)cc(C)n1 [Example 215]	–	58.1
COc1cc(-c2nc(-c3cc(C)nc(CO)c3)c3n2C[C@@H](CF)OCC3)ccc1C(F)(F)F [Example 156]	–	7.3
Cc1cc(-c2nc(-c3ccc(OC(F)(F)F)cc3)n3c2CCO[C@H](CF)C3)cc(C)n1 [Example 69]	20.9	–
Cc1cc(-c2nc(-c3ccc(OC(F)F)c(C)c3)n3c2CCO[C@H](C)C3)cc(CF)n1 [Example 199]	–	5.2
Cc1cc(-c2nc(-c3ccc(F)c(OCC4CCC4)c3)n3c2CCO[C@H](C)C3)ccn1 [Example 100]	25.3	–
COc1cc(-c2nc(-c3cc(C)nc(C)c3)c3n2CCOCC3)ccc1Br [Example 4, 3-(4-bromo-3-methoxyphenyl)-1-(2,6-dimethylpyridin-4-yl)-5,6,8,9-tetrahydroimidazo[1,5-d][1,4]oxazepine]	31.9	–
COc1cc(-c2nc(-c3cc(C)nc(C)c3)c3n2C[C@@H](CF)OCC3)ccc1OC(F)F [Example 163]	–	15.8
COc1cc(-c2nc(-c3cc(C)nc(CF)c3)c3n2C[C@@H](CF)OCC3)ccc1OC(F)F [Example 209]	–	5.1
Cc1cc(-c2nc(-c3ccc(OC(F)F)c(CF)c3)n3c2CCO[C@H](C)C3)ccn1 [Example 236]	–	2.9
CCOc1ccc(-c2nc(-c3cc(C)nc(C)c3)c3n2C[C@@H](CF)OCC3)cc1Cl [Example 37, (S)-3-(3-chloro-4-ethoxyphenyl)-1-(2,6-dimethylpyridin-4-yl)-6-(fluoromethyl)-5,6,8,9-tetrahydroimidazo[1,5-d][1,4]oxazepine]	6	–

The next lines start with the values.

IC50 [nM]	IC50 [1] [nM]	SMILES
26.5	–	Cc1cc(-c2nc(-c3ccc(F)c(OCCF)c3)n3c2CCO[C@H](C)C3)cc(C)n1 [Example 5, (R)-1-(2,6-dimethylpyridin-4-yl)-3-(4-fluoro-3-(2-fluoroethoxy)phenyl)-6-methyl-5,6,8,9-tetrahydroimidazo[1,5-d][1,4]oxazepine]
2.8	–	Cc1cc(-c2nc(-c3ccc(OC(F)F)c(Cl)c3)n3c2CCO[C@H](C)C3)cc(C)n1 [Example 32, (R)-3-(3-chloro-4-(difluoromethoxy)phenyl)-1-(2,6-dimethylpyridin-4-yl)-6-methyl-5,6,8,9-tetrahydroimidazo[1,5-d][1,4]oxazepine]
5.2	–	COc1cc(-c2nc(-c3cc(C)nc(CF)c3)c3n2C[C@@H](C)OCC3)ccc1OC(F)(F)F [Example 30, (R)-1-(2-(fluoromethyl)-6-methylpyridin-4-yl)-3-(3-methoxy-4-(trifluoromethoxy)phenyl)-6-methyl-5,6,8,9-tetrahydroimidazo[1,5-d][1,4]oxazepine]
16.2	–	COc1cc(-c2nc(-c3cc(C)nc(C)c3)c3n2C[C@@H](CF)OCC3)ccc1C(F)F [Example 28, (S)-3-(4-(difluoromethyl)-3-methoxyphenyl)-1-(2,6-dimethylpyridin-4-yl)-6-(fluoromethyl)-5,6,8,9-tetrahydroimidazo[1,5-d][1,4]oxazepine]
7.8	–	Cc1cc(-c2nc(-c3ccc(OC(F)(F)F)cc3)n3c2CCO[C@H](C)C3)cc(C)n1 [Example 51]
96.3	–	COc1ccc(-c2nc(-c3cc(C)nc(C)c3)c3n2C[C@@H](C)OCC3)cc1F [Example 59]
2.7	–	COc1cc(-c2nc(-c3cc(C)nc(C)c3)c3n2C[C@@H](CF)OCC3)ccc1OC(F)(F)F [Example 16, (S)-1-(2,6-dimethylpyridin-4-yl)-6-(fluoromethyl)-3-(3-methoxy-4-(trifluoromethoxy)phenyl)-5,6,8,9-tetrahydroimidazo[1,5-d][1,4]oxazepine]
–	17.9	Cc1cc(-c2nc(-c3ccc(OC(F)(F)F)c(C)c3)n3c2CCO[C@H](C)C3)cc(CO)n1 [Example 179]
–	11.9	Cc1cc(-c2nc(-c3ccc(OCCF)c(Cl)c3)n3c2CCO[C@H](C)C3)cc(C)n1 [Example 239]
–	5.9	CCOc1cc(-c2nc(-c3cc(C)nc(C)c3)c3n2C[C@@H](C)OCC3)ccc1CC [Example 220]
18.9	–	COc1cc(-c2nc(-c3cc(C)nc(C)c3)c3n2C[C@@H](CF)OCC3)ccc1C [Example 71]
30.4	–	COc1cc(-c2nc(-c3cc(C)nc(C)c3)c3n2C[C@@H](C(F)F)OCC3)ccc1Cl [Example 79]
103	–	Cc1cc(-c2nc(-c3ccc(F)c(OCC4(C)COC4)c3)n3c2CCO[C@H](C)C3)cc(C)n1 [Example 99]
19.4	–	COc1cc(-c2nc(-c3cc(C)nc(C)c3)c3n2C[C@@H](C)OCC3)ccc1C(C)(F)F [Example 23, (R)-3-(4-(1,1-difluoroethyl)-3-methoxyphenyl)-1-(2,6-dimethylpyridin-4-yl)-6-methyl-5,6,8,9-tetrahydroimidazo[1,5-d][1,4]oxazepine]
–	36.8	Cc1cc(-c2nc(-c3ccc(Cl)c(CF)c3)n3c2CCO[C@H](C)C3)cc(C)n1 [Example 238]
28.5	–	COc1cc(-c2nc(-c3ccc(Cl)c(OC)c3)n3c2CCO[C@H](C)C3)cc(C)n1 [Example 57]
11.5	–	CC[C@@H]1Cn2c(-c3ccc(Cl)c(OC)c3)nc(-c3cc(C)nc(C)c3)c2CCO1 [Example 77]
–	9.6	COc1cc(-c2nc(-c3cc(C)nc(C)c3)c3n2C[C@@H](C)OCC3)ccc1OC(F)F [Example 148]
4.4	–	Cc1cc(-c2nc(-c3ccc(OC(F)(F)F)c(Cl)c3)n3c2CCO[C@H](C)C3)cc(C)n1 [Example 133]
